Source: patent US8835644B2, “Broad spectrum benzothiophene-nitrothiazolide and other antimicrobials” (University of Virginia Patent Foundation, priority 2009, dated 2014)
Converted amounts (≈) assume the structure as drawn. Read-outs that look alike come from different tables or passages of the source. Values belong to the molecule of their own block, whether it stands above or below them.

Experiments:
H. pylori = test: MIC testing by broth dilution, H. pylori; format: cell-based, Helicobacter pylori
Experimental: (§1) A standard broth dilution protocol was used in 96 well microplates containing a standard dilution of the microorganism to be tested in 100 microliters of the appropriate medium. Appropriate medium: E. coli, LB medium; Staphylococcus strains, Trypticase Soy; and for H. pylori and C. jejuni, Brain Heart Infusion. The compounds to be tested were set at 32 μg/ml in 200 microliters in well one and then serially diluted to provide a range from 32 to 0.06. The wells were scored visually at 24 h. The well where there was no growth was recorded as the MIC. Clostridium difficile was tested by agar diffusion and disk diffusion (Kirby Bower) methods under anaerobic conditions on Wilkins Chalgrin agar. In these assays, zone of inhibited growth was measured and compared by relative ratio to the zone recorded for NTZ.
(§2) Representative compounds of the invention were tested in a series of assays against a series of organisms as described above. […] The organisms tested include, C. difficile, H. pylori, C. jejuni, MRSA, S. epidermidis, and E. coli. S. epidermidis and E. coli were tested in the plank and biofilm assay. A disk diffusion assay was also used for C. difficile. Direct PFOR enzyme assays were also performed. All analogues and derivatives were not tested on every organism in every type of assay (the “-” in each table means that it was not tested).

C. jejuni = test: MIC testing by broth dilution, C. jejuni; format: cell-based, Campylobacter jejuni
Experimental: as §1, §2

MRSA = test: MIC testing by broth dilution, MRSA; format: cell-based, Staphylococcus aureus
Experimental: as §1, §2

S. epidermidis = test: MIC testing by broth dilution, S. epidermidis plank; format: cell-based, Staphylococcus epidermidis
Experimental: as §1, §2

E. coli = test: MIC testing by broth dilution, E. coli plank; format: cell-based, Escherichia coli
Experimental: as §1, §2

C. difficile = test: Disk diffusion (Kirby Bower), C. difficile; format: cell-based, Clostridium difficile; conditions: for Disk Diff (%) C. difficile: Nitazoxanide = 100; for Disk Diffusion (%) C. difficile: zone of inhibited growth as relative ratio to the zone for NTZ
Experimental: as §1, §2

E. coli biofilm = E. coli biofilm assay (activity tables); format: cell-based, Escherichia coli; conditions: biofilm; read-out: MIC (μM) E. coli Biofilm
Experimental: A quantitative biofilm assay was used to determine the effect of NTZ on biofilm formation (41). Strain 042 was grown overnight at 37° C. with shaking and inoculated 1:100 in 200 μl culture medium in Costar 96-well, flat-bottom, polystyrene microtiter plates containing appropriate concentrations of NTZ. Plates were incubated statically at 37° C. in a humidified incubator. At 24 h, bacterial growth was measured by either transferring […] aliquots to another microtiter plate to determine turbidity or by diluting 100 μl aliquots 1:100 in 9.9 ml PBS for quantitative plate counts on LB medium. Bacterial counts in triplicate are reported as cfu/ml. Biofilm was visualized following staining with 0.5% crystal violet (41) and the absorbance was read at 570 nm using a microplate reader (Molecular Dynamics). All experiments were in triplicate and reported as mean and standard deviation.
as §1, §2

[1] = broth dilution, Brain Heart Infusion, 24 h, read-out: MIC (μM) H. pylori
[2] = broth dilution, Brain Heart Infusion, 24 h, read-out: MIC (μM) C. jejuni
[3] = broth dilution, Trypticase Soy, 24 h, read-out: MIC (μM) MRSA
[4] = broth dilution, Trypticase Soy, 24 h, read-out: MIC (μM) S. epidermidis Plank
[5] = broth dilution, LB medium, 24 h, read-out: MIC (μM) E. coli Plank
[6] = Helicobacter pylori, 24 h, read-out: MIC (μM) H. pylori
[7] = Campylobacter jejuni, 24 h, read-out: MIC (μM) C. jejuni
[8] = Staphylococcus aureus, MRSA, 24 h, read-out: MIC (μM) MRSA
[9] = Staphylococcus epidermidis, 24 h, read-out: MIC (μM) S. epidermidis Plank
[10] = Escherichia coli, 24 h, read-out: MIC (μM) E. coli Plank
[11] = Helicobacter pylori, broth dilution, Brain Heart Infusion, 24 h, read-out: MIC (μM) H. pylori
[12] = Campylobacter jejuni, broth dilution, Brain Heart Infusion, 24 h, read-out: MIC (μM) C. jejuni
[13] = Staphylococcus aureus, MRSA, broth dilution, Trypticase Soy, 24 h, read-out: MIC (μM) MRSA
[14] = Staphylococcus epidermidis, broth dilution, Trypticase Soy, 24 h, read-out: MIC (μM) S. epidermidis Plank
[15] = Escherichia coli, broth dilution, LB medium, 24 h, read-out: MIC (μM) E. coli Plank
[16] = Thiophene analogues table, read-out: MIC H. pylori
[17] = Thiophene analogues table, read-out: MIC C. jejuni
[18] = Thiophene analogues table, read-out: MIC MRSA
[19] = planktonic, Thiophene analogues table, read-out: MIC S. epidermidis Plank
[20] = planktonic, Thiophene analogues table, read-out: MIC E. coli Plank

SMILES: O=C(Nc1ncc([N+](=O)[O-])s1)c1cc2cc([N+](=O)[O-])ccc2o1 [VPC16a1019]
- MIC (H. pylori; Furan analogues table, read-out: MIC H. pylori): 4.5 µM (≈ 1.5 µg/mL)
- MIC (C. jejuni; Furan analogues table, read-out: MIC C. jejuni): 4.5 µM (≈ 1.5 µg/mL)
- MIC (MRSA; Furan analogues table, read-out: MIC MRSA): 47.9 µM (≈ 16 µg/mL)
- MIC (S. epidermidis; planktonic, Furan analogues table, read-out: MIC S. epidermidis Plank): 23.9 µM (≈ 7.99 µg/mL)
- MIC (E. coli; planktonic, Furan analogues table, read-out: MIC E. coli Plank): 95.7 µM (≈ 32 µg/mL)
- Disk Diff (%) C. difficile (C. difficile; Furan analogues table): 77%

SMILES: O=C(Nc1ncc([N+](=O)[O-])s1)c1cccc(OC(F)(F)F)c1 [VPC16a1041]
- MIC (H. pylori; [1]): 1.1 µM (≈ 0.367 µg/mL)
- MIC (C. jejuni; [2]): 9.0 µM (≈ 3 µg/mL)
- MIC (MRSA; [3]): 6.0 µM (≈ 2 µg/mL)
- MIC (S. epidermidis; [4]): 12.0 µM (≈ 4 µg/mL)
- MIC (E. coli; [5]): 96.0 µM (≈ 32 µg/mL)
- Disk Diffusion (%) C. difficile (C. difficile): 90%

SMILES: O=C(Nc1ncc([N+](=O)[O-])s1)c1ccc(C(F)(F)F)cc1[N+](=O)[O-] [VPC16b1016]
- MIC (H. pylori; [1]): 8.3 µM (≈ 3.01 µg/mL)
- MIC (C. jejuni; [2]): 88.3 µM (≈ 32 µg/mL)
- MIC (MRSA; [3]): 88.3 µM (≈ 32 µg/mL)
- MIC (S. epidermidis; [4]): 88.3 µM (≈ 32 µg/mL)
- MIC (E. coli; [5]): 88.3 µM (≈ 32 µg/mL)
- MIC (E. coli biofilm): 88.3 µM (≈ 32 µg/mL)

SMILES: O=C(Nc1ncc([N+](=O)[O-])s1)c1ccc(F)c([N+](=O)[O-])c1 [VPC16b1017]
- MIC (H. pylori; [1]): 1.6 µM (≈ 0.5 µg/mL)
- MIC (C. jejuni; [2]): 51.2 µM (≈ 16 µg/mL)
- MIC (MRSA; [3]): 76.9 µM (≈ 24 µg/mL)
- MIC (S. epidermidis; [4]): 51.2 µM (≈ 16 µg/mL)
- MIC (E. coli; [5]): 102.5 µM (≈ 32 µg/mL)
- MIC (E. coli biofilm): 102.5 µM (≈ 32 µg/mL)

SMILES: O=C(Nc1ncc([N+](=O)[O-])s1)c1cc2ccccc2[nH]1 [VPC16b1031, N-(5-Nitrothiazol-2-yl)-1H-indole-2-carboxamide]
- MIC (H. pylori; [6]): 6.9 µM (≈ 1.99 µg/mL)
- MIC (C. jejuni; [7]): 13.9 µM (≈ 4.01 µg/mL)
- MIC (MRSA; [8]): 27.8 µM (≈ 8.01 µg/mL)
- MIC (S. epidermidis; [9]): 13.9 µM (≈ 4.01 µg/mL)
- MIC (E. coli; [10]): 111 µM (≈ 32 µg/mL)
- Disk Diffusion (%) C. difficile (C. difficile): 75%

SMILES: NCCOc1ccccc1C(=O)Nc1ncc([N+](=O)[O-])s1.O=C(O)C(F)(F)F [VPC161219TFA]
- MIC (H. pylori; [1]): 1.88 µM
- MIC (C. jejuni; [2]): 14.2 µM
- MIC (MRSA; [3]): 75.8 µM
- MIC (S. epidermidis; [4]): 75.8 µM
- MIC (E. coli; [5]): 75.8 µM
- Disk Diffusion (%) C. difficile (C. difficile): 81%

- MIC (H. pylori; [11]): 6 µM (≈ 1.5 µg/mL)
- MIC (C. jejuni; [12]): 8 µM (≈ 1.99 µg/mL)
- MIC (MRSA; [13]): 32.1 µM (≈ 8 µg/mL)
- MIC (S. epidermidis; [14]): 16 µM (≈ 3.99 µg/mL)
- MIC (E. coli; [15]): 128 µM (≈ 32 µg/mL)
SMILES: O=C(Nc1ccccc1)c1ncc([N+](=O)[O-])s1 [VPC161232]
- Disk Diffusion (%) C. difficile (C. difficile): 0%

SMILES: COc1cc2cc(C(=O)Nc3ncc([N+](=O)[O-])s3)sc2cc1F [VPC161259]
- MIC (H. pylori; [16]): 2.1 µM (≈ 0.742 µg/mL)
- MIC (C. jejuni; [17]): 11.3 µM (≈ 3.99 µg/mL)
- MIC (MRSA; [18]): 11.3 µM (≈ 3.99 µg/mL)
- MIC (S. epidermidis; [19]): 11.3 µM (≈ 3.99 µg/mL)
- MIC (E. coli; [20]): 90.6 µM (≈ 32 µg/mL)

- MIC (H. pylori; [11]): 1 µM (≈ 0.379 µg/mL)
- MIC (C. jejuni; [12]): 84.4 µM (≈ 32 µg/mL)
- MIC (MRSA; [13]): 84.3 µM (≈ 32 µg/mL)
- MIC (S. epidermidis; [14]): 84.3 µM (≈ 32 µg/mL)
- MIC (E. coli; [15]): 84.3 µM (≈ 32 µg/mL)
SMILES: CC(C)(C)OC(=O)COc1ccccc1C(=O)Nc1ncc([N+](=O)[O-])s1 [VPC162035, tert-butyl 2-(2-(5-nitrothiazol-2-ylcarbamoyl)phenoxy)acetate]
- Disk Diffusion (%) C. difficile (C. difficile): 0%

- MIC (H. pylori; [1]): 0.5 µM (≈ 0.19 µg/mL)
- MIC (C. jejuni; [2]): 84.4 µM (≈ 32 µg/mL)
- MIC (MRSA; [3]): 84.3 µM (≈ 32 µg/mL)
- MIC (S. epidermidis; [4]): 84.3 µM (≈ 32 µg/mL)
- MIC (E. coli; [5]): 84.3 µM (≈ 32 µg/mL)
SMILES: CC(C)(C)OC(=O)COc1ccc(C(=O)Nc2ncc([N+](=O)[O-])s2)cc1 [VPC162036]

SMILES: O=C(Nc1ncc([N+](=O)[O-])s1)c1cc2ccc(F)cc2s1 [VPC162037]
- MIC (H. pylori; [16]): 3.1 µM (≈ 1 µg/mL)
- MIC (C. jejuni; [17]): 6.2 µM (≈ 2 µg/mL)
- MIC (MRSA; [18]): 61.9 µM (≈ 20 µg/mL)
- MIC (S. epidermidis; [19]): 49.5 µM (≈ 16 µg/mL)
- MIC (E. coli; [20]): 99.0 µM (≈ 32 µg/mL)
- Disk Diff (%) C. difficile (C. difficile; Thiophene analogues table): 70%

SMILES: O=C(O)COc1ccccc1C(=O)Nc1ncc([N+](=O)[O-])s1 [VPC162042, 2-(2-(5-nitrothiazol-2-ylcarbamoyl)phenoxy)acetic acid]
- MIC (H. pylori; [6]): 49.5 µM (≈ 16 µg/mL)
- MIC (C. jejuni; [7]): 99 µM (≈ 32 µg/mL)
- MIC (MRSA; [8]): 99 µM (≈ 32 µg/mL)
- MIC (S. epidermidis; [9]): 99 µM (≈ 32 µg/mL)
- MIC (E. coli; [10]): 99 µM (≈ 32 µg/mL)

SMILES: O=C(O)COc1ccc(C(=O)Nc2ncc([N+](=O)[O-])s2)cc1 [VPC162043]
- MIC (H. pylori; [1]): 99.0 µM (≈ 32 µg/mL)
- MIC (C. jejuni; [2]): 99.0 µM (≈ 32 µg/mL)
- MIC (MRSA; [3]): 99.0 µM (≈ 32 µg/mL)
- MIC (S. epidermidis; [4]): 99.0 µM (≈ 32 µg/mL)
- MIC (E. coli; [5]): 99.0 µM (≈ 32 µg/mL)
